The text below walks through data of PMC11952846, “The sterol-regulating human ARV1 binds cholesterol and phospholipids through its conserved ARV1 homology domain” (The Journal of Biological Chemistry, 2025).

Numbering of substitutions follows the chain as printed.

In one assay the target is GST-Annexin A2 (Homo sapiens, UniProt P07355). Briefly: Protein-lipid liposome binding assay (positive control protein). To be noted: protein detected in final pellet. On the procedure: (§1) Lyophilized lipids were reconstituted in chloroform at 10 mg/ml and stored in glass tubes with Teflon tops at −20 °C until use. One milliliter of 10 mg/ml stock was dried under a stream of nitrogen in a glass tube until a lipid cake/film was formed. The lipid cake was then rehydrated in BLT rehydration buffer (5 mM Tris/HCl, pH 7.4, containing 150 mM NaCl) to a concentration of 1 mg/ml. Lipid suspensions were subjected to three freeze/thaw cycles using a dry ice ethanol/[…] water bath to encapsulate the buffer and improve liposome formation. The suspension and lipid extruder were equilibrated to temperature for 10 min and liposomes were extruded using […] polycarbonate membranes (Avestin). Liposomes were made by mixing stock lipid PL (1 mg/ml) with PC (10 mg/ml).
Chain of GST-Annexin A2 (P07355 whole entry): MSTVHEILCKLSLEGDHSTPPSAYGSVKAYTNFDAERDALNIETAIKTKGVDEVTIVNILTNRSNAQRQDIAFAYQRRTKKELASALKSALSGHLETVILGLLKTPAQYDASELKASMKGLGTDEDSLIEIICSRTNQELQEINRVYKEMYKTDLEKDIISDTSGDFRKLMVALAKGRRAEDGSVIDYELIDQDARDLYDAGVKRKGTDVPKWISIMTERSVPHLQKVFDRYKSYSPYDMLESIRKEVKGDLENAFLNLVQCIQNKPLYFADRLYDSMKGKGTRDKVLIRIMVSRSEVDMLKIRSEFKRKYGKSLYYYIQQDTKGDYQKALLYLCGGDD
(§2) Liposomes were serial diluted in floatation buffer (100 mM NaCl, 2 mM EDTA, pH 5.5) to a final concentration of 0.1 mg/ml. Nine hundred microliters of liposome solution was placed in clear ultracentrifuge tubes and mixed with 100 μl of 0.01 μg/ml of protein. The liposome/protein solution was incubated at room temperature for 1 h with occasional shaking. An initial 100 μl of liposome/protein solution (liposomes) was removed and the remaining 900 μl was centrifuged at 50,000g for 20 min at 4 °C. The pellet was resuspended in 800 μl of fresh floatation buffer, centrifuged as above, and 800 μl of supernatant was removed (wash 1). This was repeated a second time and again 800 μl of supernatant was removed (wash 2). The final pellet was resuspended in 100 μl of floatation buffer plus SDS treatment buffer (pellet). Thirty microliters of each fraction was run on a 15% SDS-PAGE gel and probed with an anti-GST monoclonal antibody at a 1:1500 dilution.

The target of another assay is T1, 6XHIS-N98 K54/K59A (Homo sapiens, UniProt Q9H2C2, K54A/K59A).
T1 construct: made in house; host or cells: E. coli BL21
T1 sequence (Q9H2C2 1-98 K54A/K59A): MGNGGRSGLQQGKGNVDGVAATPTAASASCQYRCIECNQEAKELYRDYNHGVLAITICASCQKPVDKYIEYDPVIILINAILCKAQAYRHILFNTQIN
Briefly: HTRF phospholipid lipid-binding assay, mutant. To be noted: biotinylated lipid; NC = no change vs N98. On the set-up: key: NC, no change. The source says:
(§3) An HTRF assay was developed for 6XHIS-ARV1-N98-lipid binding. HTRF measures analyte interactions through fluorescence resonance energy transfer technology and time-resolved measurements ([53]). The interaction between two molecules can be quantified through binding each individual molecule involved with a fluorescent label and then analyzing the transfer of energy between the initial donor fluorophore and the secondary acceptor fluorophore. Following excitation of the first fluorophore, transfer of energy can only occur if the molecules bound with the fluorescent tags are within proximity to each other.
(§4) Assays were plated in 384-well flat bottom microplates (Greiner Bio, catalog #784075-25). Proteins were diluted using binding buffer (20 mM Hepes buffer, pH 7.2, containing 0.1% BSA, and 0.01% Tween20) to a stock concentration of 0.75 μM, and biotinylated phospholipids were dispensed, dried under nitrogen gas, and resuspended in binding buffer to a stock concentration of 50 μM. The lipid stock solution was diluted by 1:2 for a series of 12 serial dilutions. For the assay, in sequential order, 6 μl of binding buffer was loaded into the plate in triplicate for each dilution of phospholipid. To this, 2 μl of 0.75 μM 6XHIS-ARV1-N98 was added, followed by 2 μl of biotinylated phospholipid. Immediately following each addition loaded into the plate, the plate was centrifuged for 1 min at 1000 rpm to bring the contents to the bottom of the well. Next, detection antibodies were mixed with detection buffer (20 mM Hepes buffer, pH 8.5, containing 0.01% BSA and 200 mM KF). Antibodies were a MAb anti-6XHIS Europium kryptate-conjugated D1 fluorescent antibody (Cisbio, #61HISKLA) and Streptavidin-conjugated d2 fluorescent antibody (Cisbio, #610SADLA). For each 1000 μl of detection buffer, 5 μl of each antibody was added just prior to loading 10 μl into each well. The plate was again centrifuged for 1 min at 1000 rpm and stored in a sealed container overnight, in the dark. Plates were read on a PerkinElmer EnVision Xcite Multilabel plate reader.
(§5) Curves were logarithmically transformed and normalized to a common scale before being fit with a nonlinear regression of the agonist against the normalized response. This generated half maximal effective concentration values (EC50; M) that could then be compared between different lipids. In the context of our study, EC50 values were defined as a measure of protein sensitivity to binding to a particular lipid within a dose response curve. For phospholipid competition analysis, IC50; M values were determined using nonlinear regression of the inhibitor against normalized response.
On the technique in general: Time-resolved FRET reads energy transfer from a long-lived donor to a nearby acceptor.

The target of another assay is T2, 6XHIS-N98 N94Q (Homo sapiens, UniProt Q9H2C2, N94Q).
T2 construct: made in house; host or cells: E. coli BL21
T2 sequence (Q9H2C2 1-98 N94Q): T1 sequence (Q9H2C2 1-98 K54A/K59A) with A54K, A59K, N94Q
Put plainly: HTRF phospholipid lipid-binding assay, mutant. On the set-up: key: NC, no change. The following applies: biotinylated lipid; NC = no change vs N98.
Source text: as §3, §4, §5

In the next assay the target is T3, GST-ARV1-N98 C34/C37A (Homo sapiens, UniProt Q9H2C2, C34A/C37A).
T3 construct: Expresses amino-terminal 98 amino acids of ARV1; made in house; host or cells: E. coli BL21 (pGEX-4T1)
T3 sequence (Q9H2C2 1-98 C34A/C37A): T1 sequence (Q9H2C2 1-98 K54A/K59A) with C34A, C37A, A54K, A59K
Put plainly: Liposome binding assay, site-directed mutant. The following applies: PC:PL, sulfatide or PI(4)P liposomes. On the procedure:
as §1
Sulfatide liposomes were generated as previously described ([94]). All lipids were resuspended in organic solvents as per manufacturer’s instructions. Liposomes were prepared with mixing PC:PE:cholesterol:sulfatides (1:1:1:4) and subsequently dried down by lyophilization to obtain lipid films. Lipids were hydrated in 20 mM Tris–HCL, pH 6.8, containing 100 mM NaCl at a concentration of 1 mg/ml.
PI(4)P liposomes were generated as described by Knodler et al. ([95]), with some modifications. Briefly, liposomes were generated at a lipid concentration of 10 mg/ml. Liposomes contained PC (60%), PI (30%), PE (8%), and PI(4)P (2%). Lipid solution was dried down and resuspended in liposome buffer (20 mM Hepes–HCL, pH 7.4, containing 1 mM EDTA and 50 mM potassium acetate). Liposomes were formed by sonication on ice.
as §2

Consider `CCCCC/C=C\C/C=C\CCCCCCCC(=O)OC[C@H](COP(=O)(O)OCC(O)COP(=O)(O)OC[C@@H](COC(=O)CCCCCCC/C=C\C/C=C\CCCCC)OC(=O)CCCCCCC/C=C\C/C=C\CCCCC)OC(=O)CCCCCCC/C=C\C/C=C\CCCCC` (stereo partly shown) [CL, cardiolipin], for which the “binding to PC:PL liposomes” value on GST-Annexin A2 is “bound”. For the same compound, the “Bio-PL, EC50, M ± S.D.” value on 6XHIS-N98 K54/K59A and on 6XHIS-N98 N94Q was “NC” in each case.
In the case of `CCCCCCCCCCCCCCCC(=O)OC[C@H](COP(=O)(O)O)OC(=O)CCCCCCCCCCCCCCC` [PA, phosphatidic acid], the “binding to PC:PL liposomes” value at GST-Annexin A2 is “bound”. Moreover, the liposome binding result at GST-ARV1-N98 C34/C37A is “bound”. The “Bio-PL, EC50, M ± S.D.” value on 6XHIS-N98 K54/K59A and on 6XHIS-N98 N94Q was “reduced binding” in each case.
Turning to `CCCCCCCC/C=C\CCCCCCCC(=O)OC[C@H](COP(=O)(O)OCC(O)CO)OC(=O)CCCCCCC/C=C\CCCCCCCC` (stereo partly shown) [PG, phosphatidylglycerol], the “binding to PC:PL liposomes” value on GST-Annexin A2 was “bound”. For the same compound, the liposome binding entry on GST-ARV1-N98 C34/C37A is reported as “not”. In addition, the “Bio-PL, EC50, M ± S.D.” value on 6XHIS-N98 K54/K59A is on record as “reduced”; on 6XHIS-N98 N94Q it was “NC”.
Consider `CCCCCCCCCCCCCCCCCC(=O)OC[C@H](COP(=O)(O)OC[C@H](N)C(=O)O)OC(=O)CCCCCCCCCCCCCCCCC` [PS, phosphatidylserine], for which the “binding to PC:PL liposomes” value at GST-Annexin A2 is “bound”. Besides, the “Bio-PL, EC50, M ± S.D.” value at 6XHIS-N98 K54/K59A and at 6XHIS-N98 N94Q was “NC” each time.
`CCCCCC(=O)O[C@H](COC(=O)CCCCCNC(=O)CCCC[C@@H]1SC[C@@H]2NC(=O)N[C@@H]21)COP(=O)(O)O[C@H]1[C@H](O)[C@@H](O)[C@H](OP(=O)(O)O)[C@@H](O)[C@H]1O` [reference compound]: on GST-ARV1-N98 C34/C37A, the liposome binding result is “bound”. The “Bio-PL, EC50, M ± S.D.” value at 6XHIS-N98 N94Q is given as “weakened”.
As for phosphatidylcholine [PC], the “binding to PC:PL liposomes” value on GST-Annexin A2 was “very weakly”. Also, the “Bio-PL, EC50, M ± S.D.” value at 6XHIS-N98 K54/K59A and at 6XHIS-N98 N94Q was “NC” throughout.
Regarding phosphatidylethanolamine [PE], the “binding to PC:PL liposomes” value on GST-Annexin A2 is given as “Neither”. Besides, the “Bio-PL, EC50, M ± S.D.” value on 6XHIS-N98 K54/K59A and on 6XHIS-N98 N94Q was “NC” in each case.
